Results on 27 compounds are retold here after patent US20120115869A1, “TETRAZOLE DERIVATIVES” (MERCK SERONO S.A., priority 2009, published 2012).

As a reminder, the IC50 is the midpoint of a concentration-inhibition curve. By Emax is commonly meant the greatest response seen or fitted, relative to the assay's reference.

The target in the first assay is T1, CRTH2 (DP2) (Homo sapiens, UniProt Q9Y5Y4).
T1 construct: host or cells: CHO cells
T1 sequence (Q9Y5Y4 1-395): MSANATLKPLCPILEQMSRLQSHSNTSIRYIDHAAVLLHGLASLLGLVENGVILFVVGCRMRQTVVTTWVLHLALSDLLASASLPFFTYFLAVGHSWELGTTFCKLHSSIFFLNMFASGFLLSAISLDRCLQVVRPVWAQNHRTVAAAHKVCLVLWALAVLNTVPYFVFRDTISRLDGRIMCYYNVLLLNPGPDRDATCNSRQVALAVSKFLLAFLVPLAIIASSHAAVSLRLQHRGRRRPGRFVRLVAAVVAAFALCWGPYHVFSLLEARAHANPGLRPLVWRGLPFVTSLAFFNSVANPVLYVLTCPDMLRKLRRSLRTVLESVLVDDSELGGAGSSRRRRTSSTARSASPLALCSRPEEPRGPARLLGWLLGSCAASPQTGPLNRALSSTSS
Nature of the assay: Radioligand binding Scintillation Proximity Assay ([3H]PGD2, hCRTH2-CHO cell membranes). The note with it: 1.5 nM [3H]PGD2, hCRTH2-CHO cell membranes, SPA. The procedure:
(§1) Adherent CHO cells expressing hCRTH2 (Euroscreen, Belgium) were cultured in 225 cm^2 cell culture flasks (Corning, USA) in 30 ml of medium. After two rinses of phosphate buffered saline (PBS), cells were harvested in 10 ml of PBS containing 1 mM EDTA, centrifuged at 500×g for 5 min at 4° C. and frozen at −80° C. The pellet was re-suspended in 50 mM Tris-HCl, pH 7.4, 2 mM EDTA, 250 mM Sucrose, containing protease inhibitor cocktail tablets, (Complete EDTA-free, Roche, Germany) and incubated 30 min at 4° C. Cells were disrupted by nitrogen cavitation (Parr Instruments, USA) at 4° C. (800 p.s.i. for 30 min), and centrifuged at 500×g for 10 min at 4° C. Pellet containing nuclei and cellular debris was discarded and supernatant was centrifuged 60 min at 4° C. at 45000×g. Membrane pellet was re-suspended in storage buffer (10 mM HEPES/KOH pH 7.4, 1 mM EDTA, 250 mM sucrose, protease inhibitor cocktail tablets) using Dounce homogenization and frozen in liquid nitrogen, and stored at 80° C.
Non-specific binding was determined in the presence of 10 μM PGD2 (Cayman, USA). Competing Compounds of Formula (I) were diluted in dimethylsulphoxide so that the total volume of dimethylsulfoxide was kept constant at 1% dimethylsulphoxide (Me2SO). Serial dilutions of […] were prepared and 10 μl each of the compounds of Formula (I) stock solutions were added to the binding assay reagents and incubated for 90 min with agitation at room temperature.
On the technique in general: Scintillation proximity formats need no separation of bound from free tracer.
Regarding `CCC(=O)N(Cc1cccc(OC)c1)c1cc(F)cc(-c2nnn[nH]2)c1` [Example 39, N-[3-fluoro-5-(1H-tetrazol-5-yl)phenyl]-N-(3-methoxybenzyl)propanamide], the IC50 turned out to be 9.6 nM.
Regarding `CCC(=O)N(Cc1ccc(-c2cccc(S(=O)(=O)N3CCOCC3)c2)cc1)c1cc(F)cc(-c2nnn[nH]2)c1` [Example 91, N-[3-fluoro-5-(1H-tetrazol-5-yl)phenyl]-N-{[3′-(morpholin-4-ylsulfonyl)biphenyl-4-yl]methyl}propanamide], the IC50 worked out at 145 nM.
The same measure, in the same setting: the result for `CCC(=O)N(Cc1ccc(-c2cccc(S(=O)(=O)NCCO)c2)cc1)c1cc(F)cc(-c2nnn[nH]2)c1` [Example 92, N-[3-fluoro-5-(1H-tetrazol-5-yl)phenyl]-N-[(3′-{[(2-hydroxyethyl)amino]sulfonyl}biphenyl-4-yl)methyl]propanamide] reads 160 nM.
On the same count and under the same terms, the result for `CCC(=O)N(Cc1ccc(-c2cccc(S(=O)(=O)N(C)C)c2)cc1)c1cc(F)cc(-c2nnn[nH]2)c1` [Example 93, N-({3′-[(dimethylamino)sulfonyl]biphenyl-4-yl}methyl)-N-[3-fluoro-5-(1H-tetrazol-5-yl)phenyl]propanamide] reads 125 nM.
Compound `CCC(=O)N(Cc1ccc(-c2c(C)nn(C)c2C)cc1)c1cc(F)cc(-c2nnn[nH]2)c1` [Example 94, N-[3-fluoro-5-(1H-tetrazol-5-yl)phenyl]-N-[4-(1,3,5-trimethyl-1H-pyrazol-4-yl)benzyl]propanamide] yielded an IC50 of 21 nM.
On the same count and under the same terms, the result for `CCC(=O)N(Cc1ccc(S(=O)(=O)C(F)(F)F)cc1)c1cc(F)cc(-c2nnn[nH]2)c1` [Example 95, N-[3-fluoro-5-(1H-tetrazol-5-yl)phenyl]-N-{4-[(trifluoromethyl)sulfonyl]benzyl}propanamide] reads 5.6 nM.
The compound `CCC(=O)N(Cc1cccc(-c2ccncc2)c1)c1cccc(-c2nnn[nH]2)c1` [Example 96, N-(3-pyridin-4-ylbenzyl)-N-[3-(1H-tetrazol-5-yl)phenyl]propanamide] displayed an IC50 of 330 nM.
For `CCC(=O)N(Cc1ccc(-c2ccccc2)cc1)c1cc(F)cc(-c2nnn[nH]2)c1` [Example 97, N-(biphenyl-4-ylmethyl)-N-[3-fluoro-5-(1H-tetrazol-5-yl)phenyl]propanamide], the half-inhibitory concentration (IC50) was 70 nM.
For `CCC(=O)N(Cc1ccc(-c2ccccc2Cl)cc1)c1cc(F)cc(-c2nnn[nH]2)c1` [Example 98, N-[(2′-chlorobiphenyl-4-yl)methyl]-N-[3-fluoro-5-(1H-tetrazol-5-yl)phenyl]propanamide], the IC50 was determined as 31 nM.
The same measure, in the same setting: the result for `CCC(=O)N(Cc1ccc(-c2ccccc2OC)cc1)c1cc(F)cc(-c2nnn[nH]2)c1` [Example 99, N-[3-fluoro-5-(1H-tetrazol-5-yl)phenyl]-N-[(2′-methoxybiphenyl-4-yl)methyl]propanamide] reads 13 nM; that for `CCC(=O)N(Cc1ccc(-c2c(C)cccc2C)cc1)c1cc(F)cc(-c2nnn[nH]2)c1` [Example 100], 8.3 nM.
Still for that read-out and setting: with `CCC(=O)N(Cc1cccc(-c2cn[nH]c2)c1)c1cc(F)cc(-c2nnn[nH]2)c1` [Example 101, N-[3-fluoro-5-(1H-tetrazol-5-yl)phenyl]-N-[3-(1H-pyrazol-4-yl)benzyl]propanamide] the figure was 19 nM; with `CCC(=O)N(Cc1ccc(-c2ccccc2C)cc1)c1cc(F)cc(-c2nnn[nH]2)c1` [Example 102, N-[3-fluoro-5-(1H-tetrazol-5-yl)phenyl]-N-[(2′-methylbiphenyl-4-yl)methyl]propanamide], 8.9 nM; with `CCC(=O)N(Cc1ccc2c(c1)OC(F)(F)O2)c1cc(Cl)cc(-c2nnn[nH]2)c1` [Example 103, N-[3-chloro-5-(1H-tetrazol-5-yl)phenyl]-N-[(2,2-difluoro-1,3-benzodioxol-5-yl)methyl]propanamide], 13 nM.
Still for that read-out and setting: with `CS(=O)(=O)c1ccc(CN(C(=O)c2ccncc2)c2cc(F)cc(-c3nnn[nH]3)c2)cc1` [Example 106, N-[3-fluoro-5-(1H-tetrazol-5-yl)phenyl]-N-[4-(methylsulfonyl)benzyl]isonicotinamide] the figure was 20 nM.
`Cc1ccc(CCC(=O)N(Cc2ccc(S(C)(=O)=O)cc2)c2cc(F)cc(-c3nnn[nH]3)c2)cc1` [Example 107, N-[3-fluoro-5-(1H-tetrazol-5-yl)phenyl]-3-(4-methylphenyl)-N-[4-(methylsulfonyl)benzyl]propanamide]: the IC50 worked out at 2.9 nM.
Same read-out and setting: with `Cc1cc(C(=O)N(Cc2ccc(S(C)(=O)=O)cc2)c2cc(F)cc(-c3nnn[nH]3)c2)n(C)n1` [Example 110, N-[3-fluoro-5-(1H-tetrazol-5-yl)phenyl]-1,3-dimethyl-N-[4-(methylsulfonyl)benzyl]-1H-pyrazole-5-carboxamide] the figure was 56 nM.
`CCC(=O)N(Cc1ccc(-c2cnoc2)cc1)c1cc(F)cc(-c2nnn[nH]2)c1` [Example 111, N-[3-fluoro-5-(1H-tetrazol-5-yl)phenyl]-N-(4-isoxazol-4-ylbenzyl)propanamide] yielded an IC50 of 113 nM.
As to `CCC(=O)N(Cc1cccc([S+]([O-])C(F)(F)F)c1)c1cc(F)cc(-c2nnn[nH]2)c1` (centres unmarked) [Example 112, N-[3-fluoro-5-(1H-tetrazol-5-yl)phenyl]-N-{3-[(trifluoromethyl)sulfinyl]benzyl}propanamide], the IC50 is 19 nM.
Still for that read-out and setting: with `CCC(=O)N(Cc1ccc([S+]([O-])C(F)(F)F)cc1)c1cc(F)cc(-c2nnn[nH]2)c1` (centres unmarked) [Example 113, N-[3-fluoro-5-(1H-tetrazol-5-yl)phenyl]-N-{4-[(trifluoromethyl)sulfinyl]benzyl}propanamide] the figure was 3.5 nM; with `CCC(=O)N(Cc1ccc(O)cc1)c1cc(F)cc(-c2nnn[nH]2)c1` [Example 114, N-[3-fluoro-5-(1H-tetrazol-5-yl)phenyl]-N-(4-hydroxybenzyl)propanamide], 25 nM; with `CCC(=O)N(Cc1cccc(-c2ccn[nH]2)c1)c1cc(F)cc(-c2nnn[nH]2)c1` [Example 115, N-[3-fluoro-5-(1H-tetrazol-5-yl)phenyl]-N-[3-(1H-pyrazol-5-yl)benzyl]propanamide], 30 nM.
As for `CS(=O)(=O)c1ccc(CN(C(=O)c2cccnc2)c2cc(F)cc(-c3nnn[nH]3)c2)cc1` [Example 116, N-[3-fluoro-5-(1H-tetrazol-5-yl)phenyl]-N-[4-(methylsulfonyl)benzyl]nicotinamide], the half-inhibitory concentration (IC50) turned out to be 4.6 nM.
The compound `CC(C)C(=O)N(Cc1ccc(S(C)(=O)=O)cc1)c1cc(F)cc(-c2nnn[nH]2)c1` [Example 117, N-[3-fluoro-5-(1H-tetrazol-5-yl)phenyl]-2-methyl-N-[4-(methylsulfonyl)benzyl]propanamide] registered a half-maximal inhibitory concentration (IC50) of 19 nM.
The same measure, in the same setting: with `CS(=O)(=O)c1ccc(CN(C(=O)C2CCOCC2)c2cc(F)cc(-c3nnn[nH]3)c2)cc1` [Example 118, N-[3-fluoro-5-(1H-tetrazol-5-yl)phenyl]-N-[4-(methylsulfonyl)benzyl]tetrahydro-2H-pyran-4-carboxamide] the figure was 32 nM; with `CCC(=O)N(Cc1ccc(-c2sc(C)nc2C)cc1)c1cc(F)cc(-c2nnn[nH]2)c1` [Example 119, N-[4-(2,4-dimethyl-1,3-thiazol-5-yl)benzyl]-N-[3-fluoro-5-(1H-tetrazol-5-yl)phenyl]propanamide], 5.2 nM.

For a further assay, the target named is T2, CRTH2 (Homo sapiens, UniProt Q9Y5Y4).
T2 construct: expressed in transfected cells; host or cells: CHO cells
T2 sequence (Q9Y5Y4 1-395): T1 sequence (Q9Y5Y4 1-395)
Briefly: [35S]GTPγS binding assay on CHO-CRTH2 cell membranes. Format: biochemical. The following applies: without addition of PGD2; 100% of Emax being the activity measured by the addition of 1 μM of PGD2. The protocol:
as §1
The [^35S]GTPγS assay measures the increase in guanine nucleotide exchange at G-proteins in cell membranes, resulting from agonist (PGD2) binding to CRTH2. […] Briefly, Compounds of Formula (I) are incubated in 96-well scintillating white polystyrene plates (Perkin Elmer, USA) in a final volume of 200 μl containing 20 mM HEPES/KOH pH 7.4, 3 mM MgCl2, 10 μg/ml Saponin, 5 μM GDP, 75 mM NaCl and 2% of dimethylsulphoxide (DMSO). […] After 60 min incubation at 30° C., reaction is stopped by centrifugation at 700×g, at 4° C. for 10 minutes and supernatant is removed. […] For IC50 determination, increasing concentrations of compounds are incubated in presence of a fixed concentration of PGD2 (EC80). For EC50 measurements, compounds are incubated without addition of PGD2. Basal [^35S]GTPγS activity is determined without addition of any ligands or compounds. 100% [^35S]GTPγS activity is measured by the addition of 1 μM of PGD2.
On the technique in general: GTPγS is a poorly hydrolysed GTP analogue; its binding reports G protein activation.
Turning to `CCC(=O)N(Cc1cccc(OC)c1)c1cc(F)cc(-c2nnn[nH]2)c1` [Example 39, N-[3-fluoro-5-(1H-tetrazol-5-yl)phenyl]-N-(3-methoxybenzyl)propanamide], the Emax was -11.2%.
On the same count and under the same terms, with `CCC(=O)N(Cc1cccc(O)c1)c1cc(F)cc(-c2nnn[nH]2)c1` [Example 84, N-[3-fluoro-5-(1H-tetrazol-5-yl)phenyl]-N-(3-hydroxybenzyl)propanamide] the figure was -17.1%.
The same measure, in the same setting: the result for `CCC(=O)N(Cc1ccc(-c2c(C)cccc2C)cc1)c1cc(F)cc(-c2nnn[nH]2)c1` [Example 100] reads -16.7%.
